For test [1], the system named is E. coli strains carrying ESBL mutants of TEM. As to the kind of experiment: checkerboard assay (FICI), TEM3.2 versus ampicillin. The class given is cell-based. From the text: FIGS. 2A-2M. (FIG. 2A) TEM mutations and their effects on stability (total energy) as predicted by FoldX. […] Dashed line indicates a total energy difference of 0.5 kcal/mol, the FoldX cut-off above which mutations are considered to be destabilizing. (FIG. 2B) Barplot mapping mutations in (FIG. 2A) to the TEM sequence and indicating occurrence. […] The bar heights correspond to the number of times a mutation occurs across different TEM variants (right-hand y-axis). The color coding is identical to that in (FIG. 2A). Red line indicates the TANGO scores (indicated on the left-hand y-axis), with peaks corresponding to APRs. […]
Moreover, the core sequence of peptide TEM3.0 also occurs in the structurally related SHV β-lactamase (FIG. 2E). […] To quantify the synergy between these four peptides and penicillin G, we performed a so-called checkerboard assay, which allows to compare the activity of two test compounds co-incubated (here peptide and a beta-lactam antibiotic), to their individual activities in isolation. The result from the assay is quantified as the Fractional Inhibitory Concentration Index (FICI), and it is generally accepted that values below 0.5 indicate synergistic effects between the compounds. […] We evaluated the synergy of the peptides with penicillin G in clinical E. coli isolates carrying the TEM (FIG. 2I) or SHV enzymes (FIG. 2J). […]

The test system of a further test is E. coli UZ_TEM104. As to the kind of experiment: FACS analysis with Propidium Iodide and pFTAA. In kind it is cell-based. How it is done: FIGS. 3A-3P. […] Three replicates are shown for each condition. […] A single representative image is shown. […] Three replicates are shown for each condition. (FIG. 3E) [Left] […] [Middle] […] [Right] […] A single representative image is shown. […] A single representative image is shown. […] A single representative image is shown. […] A single representative blot is shown. […] 106 cells were analysed for the plot.
First, we tested the assay using a mixture of live and heat inactivated (FIG. 3L) or just live bacteria (FIG. 3M), showing that heat inactivated, but not live bacteria are stained with PI, and neither are stained with pFTAA.
Bacterial cells in the cleaned suspensions were stained with both propidium iodide (PI) and FITC peptide to evaluate the killing rate and peptide uptake in a two-dimensional analysis. […] Treated bacteria washed with PBS buffer two times. One microliter of PI (Invitrogen) was added to the bacteria and incubated for 5 min. The bacteria were used by FACS tubes for 40000 events. To correlate the activity of the peptides with cell death, the fluorescence intensity was measured in two channels using the Gallios™ Flow Cytometer (Beckman Coulter, USA), PI: excitation 536 nm and emission 617 nm, FITC: excitation 490 nm and emission 525 nm. Heated bacteria at 90° C. for 10 min were used as PI-positive control.
On the technique in general: Flow cytometry measures light scatter and fluorescence of single cells or particles in a stream.

Some results are limits rather than exact numbers.

As for Ac-RLTAFLHNRRPRLTAFLRQRR-NH2 [TEM3.2], the “synergy with ampicillin (FICI)” value in test [1] is “synergy”. Besides, the “cells with non-lethal aggregation (shift only in pFTAA channel)” value with E. coli UZ_TEM104 (50 μg/mL TEM3.2 in PBS, 4 h) is greater than 99%. Also, the “change in PI (cell death) and pFTAA (aggregation) channels” value in the test on E. coli UZ_TEM104 (400 μg/mL penicillin G and 50 μg/mL TEM3.2, 4 h) is “shift in both channels”.

The values are drawn from patent US20240165196A1, “Beta-Lactamase Inhibitors” (VIB VZW, priority 2021, published 2024).
